Assay results as given in patent publication US5830902A, “Quinuclidine derivative having tricyclic hetero condensed ring” (Yamanouchi Pharmaceutical Co., Ltd., priority 1995, dated 1998).
Where a name gives a salt, the structure may show the parent alone. Read-outs that look alike come from different tables or passages of the source.

Key:
human squalene synthase = biological target: T1, human squalene synthase (Homo sapiens, UniProt P37268); experiment: Test on human squalene synthase inhibition (HepG2 microsomal fraction); type: biochemical
T1 construct: endogenous in cells; host or cells: HepG2 human hepatoma cells (microsomal fraction)
T1 sequence (P37268 1-417): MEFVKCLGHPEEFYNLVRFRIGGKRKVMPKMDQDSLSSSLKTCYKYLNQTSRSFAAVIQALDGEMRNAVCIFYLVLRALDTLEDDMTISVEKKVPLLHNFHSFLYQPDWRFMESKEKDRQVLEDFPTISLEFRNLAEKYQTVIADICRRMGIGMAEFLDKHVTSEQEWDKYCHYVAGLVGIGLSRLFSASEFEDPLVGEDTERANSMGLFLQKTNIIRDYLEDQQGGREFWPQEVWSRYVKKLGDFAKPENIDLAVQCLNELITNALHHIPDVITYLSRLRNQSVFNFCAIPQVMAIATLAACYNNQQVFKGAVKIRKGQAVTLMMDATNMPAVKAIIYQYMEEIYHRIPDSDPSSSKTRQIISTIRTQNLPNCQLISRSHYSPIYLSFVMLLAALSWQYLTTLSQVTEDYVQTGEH
Description: A. Test on human squalene synthase inhibition
(1) Preparation of squalene synthase from human hepatoma cells
Human hepatoma cells (HepG2 cells) were cultured using DMEM containing 10% FBS until a single layer was formed, and then the medium was replaced by DMEM supplemented with 10% human lipoprotein deficient serum (LPDS) to carry out 24 hours of culturing. The cells were washed twice with PBS, collected using a Rubber Policeman and subjected to centrifugation. The resulting precipitate was homogenized in five volumes of 50 mM Hepes buffer (pH 7.5) containing 5 mM EDTA and centrifuged at 20,000×g for 15 minutes. The supernatant was again subjected to the same centrifugation. The supernatant was subjected to 1 hour of centrifugation at 100,000×g, and the microsomes obtained were suspended in the same buffer and used in the test as a HepG2 squalene synthase fraction.
(2) Measurement of squalene synthase inhibiting activity
A dimethyl sulfoxide solution of each drug to be tested was added to a solution of the squalene synthase fraction prepared above (protein 10 ng, 50 mM Hepes buffer (pH 7.5)), 11 mM NaF, 5.5 mM MgCl2, 3 mM DTT, 1 mM NADPH, 1 mM pyrophosphate and 2.5 μM ^3 H-FPP, and the mixture was adjusted to a total volume of 0.2 ml and shaken at 30° C. for 20 minutes to effect the reaction. The reaction was terminated by adding 100 μl of 20% potassium hydroxide-50% ethanol solution, and the reaction solution was heated at 65° C. for 30 minutes. The un-saponified material was extracted with petroleum ether, and 1/3 volume thereof was subjected to measurement by a liquid scintillation counter. The ^3 H radioactivity of the un-saponified material was regarded as products down stream of squalene in the cholesterol biosynthesis system, and the squalene synthase inhibiting action was calculated by comparing ^3 H radioactivities of the test group and control group.
In addition, concentration of each compound of the present invention to inhibit 50% of squalene synthase (IC50 value) was obtained by calculation.

[1] = Cholesterol lowering action in hamster; type: in vivo; details: male golden hamsters; 50 mg/kg in 0.5% methyl cellulose, administered by force; 5 days; blood 2 hours after final administration
Description: C. Cholesterol lowering action in hamster
Male golden hamsters (130 to 150 g) which have been treated by reversing night and day since 12 or more days before the commencement of administration were divided into groups 4 days before the administration in such a manner that the cholesterol value became the same among the groups. Each drug was prepared as a 0.5% methyl cellulose solution and administered by force in a dosage of 50 mg/kg. In this case, the liquid volume was 10 ml/kg.
The administration was carried out continuously for 4 days at around A.M. 11:00 under satiated condition and then on the fifth day after 16 hours of fasting. After 2 hours of the final administration, blood samples were collected from the abdominal vena cava under diethyl ether anesthesia and their cholesterol values were measured using an automatic analyzer (Hitachi 736).

[2] = test system: enzyme located at a downstream stage of the cholesterol biosynthesis system; details: background art; cited from earlier work

Row | SMILES | IC50 (human squalene synthase; squalene synthase derived from human hepatoma (HepG2) cells, 2.5 μM 3H-FPP, 30° C., 20 minutes, read-out: IC50 value of squalene synthase inhibiting activity) | Lowering ratio (cholesterol) [1] | IC50 (human squalene synthase) | desmosterol accumulation / cataracts [2]
1 | F/C(COc1ccc2c(c1)[nH]c1ccccc12)=C1/CN2CCC1CC2 [Example 1, (E)-3-[2-(Carbazol-2-yloxy)-1-fluoroethylidene]quinuclidine hydrochloride] | 79 nM | 57% |  | 
2 | C(/COc1ccc2c(c1)[nH]c1ccccc12)=C1/CN2CCC1CC2.Cl [Example 2, (Z)-3-[2-(Carbazol-2-yloxy)ethylidene]quinuclidine hydrochloride] |  | 39% | 59 nM | 
3 | CN1c2ccccc2Sc2cc(COC3CN4CCC3CC4)ccc21.Cl (stereo not shown) [Example 17, 3-(10-Methylphenothiazin-3-ylmethoxy)quinuclidine hydrochloride] |  | 46% | 85 nM | 
4 | CCN(CC)CCOc1ccc(C(O)(Cc2ccc(Cl)cc2)c2ccc(C)cc2)cc1 (stereo not shown) [triparanol] |  |  |  | accumulates desmosterol which causes the cataracts
